This is an account of results in ChEMBL document CHEMBL3758181, “New approach towards the synthesis of selenosemicarbazones, useful compounds for Chagas' disease” (Eur J Med Chem, 2016).

The source made the active and inactive calls. The calls are words filed in the database; no cut-off is given here.

In data set [1] the test system is Trypanosoma cruzi. Briefly: Antitrypanosomal activity against epimastigote stage of Trypanosoma cruzi Dm28c after 72 hrs by resazurin dye based microplate reader analysis. It is filed as functional. A general note: Resazurin is reduced to fluorescent resorufin, in cell work by metabolically active cells.
Data set [2] concerns Trypanosoma cruzi. Briefly: Antitrypanosomal activity against trypomastigotes stage of Trypanosoma cruzi strain CL Brener infected in acute chagas BALB/c mouse model assessed as time for maximum parasitaemia parasitaemia at 10 mg/kg/day, po administered for 14 days started on day 9 post infection by Neubauer chamber analysis (reference value: 26 days). It is filed as functional.

Data set [3] has as its system Trypanosoma cruzi. Briefly: Antitrypanosomal activity against trypomastigotes stage of Trypanosoma cruzi strain CL Brener infected in acute chagas BALB/c mouse model assessed as reduction in parasitaemia at 10 mg/kg/day, po administered for 14 days started on day 9 post infection measured at 30 to 60 days by Neubauer chamber analysis relative to control. It is filed as functional. Also noted: scale not given: the % may be the effect or the level left.

The nature of data set [4]: Selectivity index, ratio of CC50 for African green monkey Vero cells to IC50 for epimastigote stage of Trypanosoma cruzi Dm28c. It is filed as functional.
Data set [5] deals with Trypanosoma cruzi. Briefly: Antitrypanosomal activity against trypomastigotes stage of Trypanosoma cruzi strain CL Brener infected in acute chagas BALB/c mouse model assessed as survival rate at 10 mg/kg/day, po administered for 14 days started on day 9 post infection measured at 30 to 60 days. It is filed as functional.
The nature of data set [6]: Toxicity in acute chagas BALB/c mouse model infected with trypomastigotes stage of Trypanosoma cruzi strain CL Brener assessed as mortality at 50 mg/kg/day, po administered for 14 days started on day 9 post infection measured on day 20. The note with it: in vivo. It is filed as organism-based.
Data set [7] deals with Trypanosoma cruzi. Briefly: Antitrypanosomal activity against trypomastigotes stage of Trypanosoma cruzi strain CL Brener infected in acute chagas BALB/c mouse model assessed as survival rate at 50 mg/kg/day, po administered for 14 days started on day 9 post infection measured at 30 to 60 days. It is filed as functional, organism-based.
In a further data set the test system is Mus musculus. Briefly: Toxicity in acute chagas BALB/c mouse model infected with trypomastigotes stage of Trypanosoma cruzi strain CL Brener assessed as mortality at 50 mg/kg/day, po administered for 14 days started on day 9 post infection measured at 30 to 60 days. The note with it: in vivo. It is filed as organism-based.

Broadly, the IC50 is the point on the concentration scale where inhibition reaches its midpoint. In turn, `C/C(=N\NC(N)=[Se])c1cccc(C)c1` came in with an IC50 with Trypanosoma cruzi [1] of 12.2 µM. The same measure, in the same setting: next, `CN(C)c1ccc(/C=N/NC(N)=[Se])cc1`: 26.2 µM.

In turn, `C/C(=N\NC(N)=[Se])C(C)C` came in with an IC50 in the data set on Trypanosoma cruzi [1] of 50.2 µM.

The term mortality denotes the share of the test organisms that died. For the compound `C/C(=N\NC(N)=[Se])c1cccc(Br)c1`, in the data set on Trypanosoma cruzi [2], the Time is 26 days. Further, the Activity with Trypanosoma cruzi [3] was 50%. The “Ratio CC50/IC50” value in data set [4] was determined as 39. In the data set with Trypanosoma cruzi [5], the survival at 10 mg/kg/day is 71%. Also, in the data set with Trypanosoma cruzi [1], the IC50 worked out at 1.2 µM. In data set [6], the mortality at 336 h was determined as 100%. Regarding `O=C(Cn1ccnc1[N+](=O)[O-])NCc1ccccc1` [BENZNIDAZOLE], the outcome in the data set with Trypanosoma cruzi [7] was Active. The “Ratio CC50/IC50” value in data set [4] stood at 25. For the same compound, in the data set with Mus musculus, the Activity entry is on record as “Non-toxic”. The compound further showed an IC50 in the data set on Trypanosoma cruzi [1] of 12.5 µM.

In the data set on Trypanosoma cruzi [1], `C/C(=N\NC(N)=[Se])c1cccc(Cl)c1` came in with an IC50 of 12.5 µM.

In the data set with Trypanosoma cruzi [1], `C/C(=N\NC(N)=[Se])c1ccccc1` came in with an IC50 of 12.4 µM. Same read-out and setting: next, `C/C(=N\NC(N)=[Se])c1ccc(Cl)c(Cl)c1`: 50.2 µM. The compound `CC/C(=N\NC(N)=[Se])c1cccc(C(F)(F)F)c1` came in with an IC50 with Trypanosoma cruzi [1] of 6.5 µM. On the same count and under the same terms, the figure for `COc1ccc(/C=N/NC(N)=[Se])cc1` is 25.5 µM.
